# According to patent US20250312462A1, “PAK1 DEGRADERS AND METHODS OF USE THEREOF” (INSTITUTE FOR CANCER RESEARCH D/B/A THE RESEARCH INSTITUTE …, priority 2022, published 2025):
# Read-outs that look alike come from different tables or passages of the source.
# How the values were obtained:
# RIOK3 = RIOK3 (Homo sapiens, UniProt O14730); experiment: KINOMEscan; conditions: read-out: Percent Control
# Experimental: (§4) The kinase engagement assay (KINOMEscan®) was performed by DiscoverX assessing binding abilities toward a set of kinases.
# FRK = FRK (Homo sapiens, UniProt P42685); experiment: KINOMEscan; conditions: read-out: Percent Control
# Experimental: as §4
# BMX = BMX (Homo sapiens, UniProt P51813); experiment: KINOMEscan; conditions: read-out: Percent Control
# Experimental: as §4
# CAMKK1 = CAMKK1 (Homo sapiens, UniProt Q8N5S9); experiment: KINOMEscan; conditions: read-out: Percent Control
# Experimental: as §4
# KIT(L576P) = KIT(L576P) (Homo sapiens, UniProt P10721, L576P); experiment: KINOMEscan; conditions: read-out: Percent Control
# Experimental: as §4
# YANK2 = YANK2 (Homo sapiens, UniProt Q9NY57); experiment: KINOMEscan; conditions: read-out: Percent Control
# Experimental: as §4
# ACVR1B = ACVR1B (Homo sapiens, UniProt P36896); experiment: KINOMEscan; conditions: read-out: Percent Control
# Experimental: as §4
# MARK3 = MARK3 (Homo sapiens, UniProt P27448); experiment: KINOMEscan; conditions: read-out: Percent Control
# Experimental: as §4
# FLT3(K663Q) = FLT3(K663Q) (Homo sapiens, UniProt P36888, K663Q); experiment: KINOMEscan; conditions: read-out: Percent Control
# Experimental: as §4
# TLK1 = TLK1 (Homo sapiens, UniProt Q9UKI8); experiment: KINOMEscan; conditions: read-out: Percent Control
# Experimental: as §4
# MKK7 = MKK7 (Homo sapiens, UniProt O14733); experiment: KINOMEscan; conditions: read-out: Percent Control
# Experimental: as §4
# Hey A8 cells = experiment: Cell proliferation, MTT assay; type: cell-based
# Experimental: (§1) Cell proliferation was assessed by MTT assay.
# (§2) Cell viability was measured by MTT assay and the half maximal inhibitory concentration (IC50) was calculated using GraphPad Prism. Triplicates were performed for each sample and medium alone was used as a blank.
# (§3) The anti-proliferative effects of PAK1 degradation and inhibition were evaluated.
# OMM1 cells = experiment: Cell proliferation, MTT assay; type: cell-based; conditions: OMM1 cells (PAK2-dependent)
# Experimental: as §1, §2, §3
# MCF7 cells = experiment: Cell proliferation, MTT assay; type: cell-based; conditions: Homo sapiens, MCF7, MCF7 cells, read-out: EC50, anti-proliferative
# Experimental: as §1, §2, §3
# [1] = biological target: RSK3(Kin.Dom.1-N-terminal) (Homo sapiens, UniProt Q15349); experiment: KINOMEscan; conditions: read-out: Percent Control
# Experimental: as §4
# PAK3 = PAK3 (Homo sapiens, UniProt O75914); experiment: KINOMEscan; conditions: read-out: Percent Control
# Experimental: as §4
# AKT2 = AKT2 (Homo sapiens, UniProt P31751); experiment: KINOMEscan; conditions: read-out: Percent Control
# Experimental: as §4
# MAP3K4 = MAP3K4 (Homo sapiens, UniProt Q9Y6R4); experiment: KINOMEscan; conditions: read-out: Percent Control
# Experimental: as §4
# MEK4 = MEK4 (Homo sapiens, UniProt P45985); experiment: KINOMEscan; conditions: read-out: Percent Control
# Experimental: as §4
# WNK3 = WNK3 (Homo sapiens, UniProt Q9BYP7); experiment: KINOMEscan; conditions: read-out: Percent Control
# Experimental: as §4
# MST4 = MST4 (Homo sapiens, UniProt Q9P289); experiment: KINOMEscan; conditions: read-out: Percent Control
# Experimental: as §4
# [2] = biological target: ABL1(H396P)-nonphosphorylated (Homo sapiens, UniProt P00519, H396P); experiment: KINOMEscan; conditions: read-out: Percent Control
# Experimental: as §4
# p38-beta = p38-beta (Homo sapiens, UniProt Q15759); experiment: KINOMEscan; conditions: read-out: Percent Control
# Experimental: as §4
# FYN = FYN (Homo sapiens, UniProt P06241); experiment: KINOMEscan; conditions: read-out: Percent Control
# Experimental: as §4
# IKK-alpha = IKK-alpha (Homo sapiens, UniProt O15111); experiment: KINOMEscan; conditions: read-out: Percent Control
# Experimental: as §4
# MAP4K5 = MAP4K5 (Homo sapiens, UniProt Q9Y4K4); experiment: KINOMEscan; conditions: read-out: Percent Control
# Experimental: as §4
# EIF2AK1 = EIF2AK1 (Homo sapiens, UniProt Q9BQI3); experiment: KINOMEscan; conditions: read-out: Percent Control
# Experimental: as §4
# LATS2 = LATS2 (Homo sapiens, UniProt Q9NRM7); experiment: KINOMEscan; conditions: read-out: Percent Control
# Experimental: as §4
# [3] = biological target: RSK3(Kin.Dom.2-C-terminal) (Homo sapiens, UniProt Q15349); experiment: KINOMEscan; conditions: read-out: Percent Control
# Experimental: as §4
# MST2 = MST2 (Homo sapiens, UniProt Q13188); experiment: KINOMEscan; conditions: read-out: Percent Control
# Experimental: as §4
# CSNK1D = CSNK1D (Homo sapiens, UniProt P48730); experiment: KINOMEscan; conditions: read-out: Percent Control
# Experimental: as §4
# PAK4 = PAK4 (Homo sapiens, UniProt O96013); experiment: KINOMEscan; conditions: read-out: Percent Control
# Experimental: as §4
# Sequence of LATS2 (Q9NRM7 whole entry): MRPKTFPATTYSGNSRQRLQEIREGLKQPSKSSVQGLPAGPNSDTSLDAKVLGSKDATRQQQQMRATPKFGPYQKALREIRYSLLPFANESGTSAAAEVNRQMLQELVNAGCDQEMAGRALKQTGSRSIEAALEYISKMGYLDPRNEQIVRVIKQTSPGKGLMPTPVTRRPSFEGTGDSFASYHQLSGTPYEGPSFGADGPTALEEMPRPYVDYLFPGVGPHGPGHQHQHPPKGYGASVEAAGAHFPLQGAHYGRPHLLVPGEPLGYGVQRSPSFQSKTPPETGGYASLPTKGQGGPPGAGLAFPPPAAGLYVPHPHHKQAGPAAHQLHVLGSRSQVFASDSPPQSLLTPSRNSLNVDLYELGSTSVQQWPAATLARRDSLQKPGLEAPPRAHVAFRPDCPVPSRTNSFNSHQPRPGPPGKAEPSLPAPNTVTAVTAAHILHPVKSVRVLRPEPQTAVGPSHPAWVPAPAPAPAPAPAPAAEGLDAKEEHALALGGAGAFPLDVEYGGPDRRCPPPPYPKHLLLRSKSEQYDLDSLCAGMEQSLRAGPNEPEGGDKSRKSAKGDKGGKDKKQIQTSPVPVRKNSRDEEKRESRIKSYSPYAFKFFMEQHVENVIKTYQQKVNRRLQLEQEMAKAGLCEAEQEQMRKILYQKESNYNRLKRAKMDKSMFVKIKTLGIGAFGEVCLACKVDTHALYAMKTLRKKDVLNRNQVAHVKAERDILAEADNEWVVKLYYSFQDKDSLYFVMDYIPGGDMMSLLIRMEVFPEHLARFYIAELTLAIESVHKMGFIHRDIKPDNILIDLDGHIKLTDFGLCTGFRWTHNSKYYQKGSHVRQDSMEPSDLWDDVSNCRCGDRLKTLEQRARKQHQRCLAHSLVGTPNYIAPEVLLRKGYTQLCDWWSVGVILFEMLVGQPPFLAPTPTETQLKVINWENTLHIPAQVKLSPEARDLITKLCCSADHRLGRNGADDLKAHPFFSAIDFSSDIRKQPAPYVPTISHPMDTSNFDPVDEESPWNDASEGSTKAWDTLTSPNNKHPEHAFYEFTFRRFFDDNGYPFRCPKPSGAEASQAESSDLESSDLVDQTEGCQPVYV
# Sequence of KIT(L576P) (P10721 26-976 L576P): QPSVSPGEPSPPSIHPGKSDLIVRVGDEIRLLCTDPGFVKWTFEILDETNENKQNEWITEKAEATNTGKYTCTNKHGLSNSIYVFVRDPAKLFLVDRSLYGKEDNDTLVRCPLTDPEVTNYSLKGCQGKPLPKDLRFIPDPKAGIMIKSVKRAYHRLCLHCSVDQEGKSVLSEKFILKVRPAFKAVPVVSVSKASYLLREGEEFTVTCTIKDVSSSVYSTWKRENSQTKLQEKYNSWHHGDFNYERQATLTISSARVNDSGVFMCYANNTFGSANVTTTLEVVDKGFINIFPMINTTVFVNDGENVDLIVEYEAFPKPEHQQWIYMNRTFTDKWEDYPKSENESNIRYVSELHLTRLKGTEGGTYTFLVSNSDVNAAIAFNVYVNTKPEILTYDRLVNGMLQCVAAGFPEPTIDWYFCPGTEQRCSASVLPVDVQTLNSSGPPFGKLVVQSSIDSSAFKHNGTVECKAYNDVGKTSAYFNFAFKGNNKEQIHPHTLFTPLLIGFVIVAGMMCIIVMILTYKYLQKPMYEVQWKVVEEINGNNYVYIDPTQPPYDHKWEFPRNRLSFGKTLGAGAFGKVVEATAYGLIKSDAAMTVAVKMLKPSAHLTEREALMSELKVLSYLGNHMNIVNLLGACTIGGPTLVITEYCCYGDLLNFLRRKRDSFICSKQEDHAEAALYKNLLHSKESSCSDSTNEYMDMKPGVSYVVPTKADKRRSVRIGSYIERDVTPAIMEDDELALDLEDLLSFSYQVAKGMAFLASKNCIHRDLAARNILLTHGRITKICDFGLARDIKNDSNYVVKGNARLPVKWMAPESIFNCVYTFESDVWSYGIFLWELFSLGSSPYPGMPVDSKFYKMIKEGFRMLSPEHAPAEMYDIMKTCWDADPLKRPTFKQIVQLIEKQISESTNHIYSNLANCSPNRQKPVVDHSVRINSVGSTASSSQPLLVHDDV
# Sequence of FYN (P06241 whole entry): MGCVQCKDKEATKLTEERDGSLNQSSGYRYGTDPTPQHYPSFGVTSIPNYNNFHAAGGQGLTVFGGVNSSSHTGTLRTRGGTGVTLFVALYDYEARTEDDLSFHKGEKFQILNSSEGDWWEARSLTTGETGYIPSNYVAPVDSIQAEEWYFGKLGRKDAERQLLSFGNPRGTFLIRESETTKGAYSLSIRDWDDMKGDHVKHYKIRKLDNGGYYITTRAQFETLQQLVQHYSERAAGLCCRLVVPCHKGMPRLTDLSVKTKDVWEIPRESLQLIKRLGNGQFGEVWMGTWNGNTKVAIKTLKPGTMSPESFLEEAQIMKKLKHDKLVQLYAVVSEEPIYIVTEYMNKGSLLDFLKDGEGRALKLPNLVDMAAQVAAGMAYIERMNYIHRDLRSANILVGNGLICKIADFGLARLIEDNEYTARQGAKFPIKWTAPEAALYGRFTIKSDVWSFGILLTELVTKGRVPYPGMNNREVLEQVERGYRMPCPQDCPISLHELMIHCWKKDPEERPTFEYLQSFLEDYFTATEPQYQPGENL
# Sequence of MARK3 (P27448 whole entry): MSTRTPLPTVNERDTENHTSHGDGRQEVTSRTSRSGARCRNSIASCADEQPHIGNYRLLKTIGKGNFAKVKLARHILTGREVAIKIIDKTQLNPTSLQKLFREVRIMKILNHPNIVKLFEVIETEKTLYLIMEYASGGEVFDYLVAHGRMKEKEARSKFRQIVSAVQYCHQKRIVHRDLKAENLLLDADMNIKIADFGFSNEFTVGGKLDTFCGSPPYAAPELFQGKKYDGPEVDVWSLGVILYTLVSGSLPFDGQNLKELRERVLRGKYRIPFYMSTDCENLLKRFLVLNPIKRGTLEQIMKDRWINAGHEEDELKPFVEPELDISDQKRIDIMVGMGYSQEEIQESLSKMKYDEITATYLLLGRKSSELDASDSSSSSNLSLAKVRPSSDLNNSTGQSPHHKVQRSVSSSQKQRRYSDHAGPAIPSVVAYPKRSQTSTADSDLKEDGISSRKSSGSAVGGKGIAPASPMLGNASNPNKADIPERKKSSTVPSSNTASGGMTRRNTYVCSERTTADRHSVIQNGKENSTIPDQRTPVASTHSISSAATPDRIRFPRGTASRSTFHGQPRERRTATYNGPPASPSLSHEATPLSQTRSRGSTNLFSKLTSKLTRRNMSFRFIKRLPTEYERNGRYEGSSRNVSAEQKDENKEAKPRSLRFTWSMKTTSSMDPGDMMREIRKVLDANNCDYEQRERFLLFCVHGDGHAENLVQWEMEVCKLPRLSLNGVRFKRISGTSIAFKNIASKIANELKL
# Sequence of AKT2 (P31751 whole entry): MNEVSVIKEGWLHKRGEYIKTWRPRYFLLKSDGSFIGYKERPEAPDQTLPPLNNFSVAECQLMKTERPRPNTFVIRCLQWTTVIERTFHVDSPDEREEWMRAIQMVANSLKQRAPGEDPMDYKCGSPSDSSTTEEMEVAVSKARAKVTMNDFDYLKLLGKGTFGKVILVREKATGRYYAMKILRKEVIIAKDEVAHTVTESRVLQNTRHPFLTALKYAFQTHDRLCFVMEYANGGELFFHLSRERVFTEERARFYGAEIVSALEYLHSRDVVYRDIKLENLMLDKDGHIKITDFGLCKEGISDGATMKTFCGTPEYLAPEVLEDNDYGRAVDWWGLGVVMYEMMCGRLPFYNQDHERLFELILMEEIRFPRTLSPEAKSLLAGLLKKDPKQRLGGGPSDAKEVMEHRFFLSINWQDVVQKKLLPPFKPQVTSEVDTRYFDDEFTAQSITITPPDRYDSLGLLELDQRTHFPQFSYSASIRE
# Sequence of ACVR1B (P36896 24-505): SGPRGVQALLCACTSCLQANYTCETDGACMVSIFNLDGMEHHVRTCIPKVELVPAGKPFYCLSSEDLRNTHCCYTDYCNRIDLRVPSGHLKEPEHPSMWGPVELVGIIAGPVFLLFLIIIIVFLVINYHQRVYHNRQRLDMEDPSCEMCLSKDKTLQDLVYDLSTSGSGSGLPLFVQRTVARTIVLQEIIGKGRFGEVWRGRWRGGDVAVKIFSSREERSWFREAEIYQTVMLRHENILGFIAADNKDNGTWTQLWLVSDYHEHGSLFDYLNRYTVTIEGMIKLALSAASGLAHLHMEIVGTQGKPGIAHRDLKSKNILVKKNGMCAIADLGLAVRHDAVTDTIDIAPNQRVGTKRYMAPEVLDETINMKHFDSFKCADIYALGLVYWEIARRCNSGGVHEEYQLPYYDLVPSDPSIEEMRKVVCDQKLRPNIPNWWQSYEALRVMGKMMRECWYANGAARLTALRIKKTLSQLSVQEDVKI
# Sequence of MKK7 (O14733 whole entry): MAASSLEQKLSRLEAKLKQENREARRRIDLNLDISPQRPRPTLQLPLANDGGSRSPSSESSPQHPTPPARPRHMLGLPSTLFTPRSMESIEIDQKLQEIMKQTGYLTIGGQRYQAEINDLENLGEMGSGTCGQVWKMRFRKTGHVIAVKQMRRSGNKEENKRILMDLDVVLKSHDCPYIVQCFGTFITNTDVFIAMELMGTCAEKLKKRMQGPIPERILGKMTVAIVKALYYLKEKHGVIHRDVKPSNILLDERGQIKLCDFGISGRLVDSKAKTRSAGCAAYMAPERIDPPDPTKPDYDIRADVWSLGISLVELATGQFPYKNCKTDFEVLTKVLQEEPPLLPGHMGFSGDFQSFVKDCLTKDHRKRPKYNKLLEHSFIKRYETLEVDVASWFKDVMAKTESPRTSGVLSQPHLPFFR
# Sequence of RSK3(Kin.Dom.2-C-terminal) (Q15349 415-672 limits assumed): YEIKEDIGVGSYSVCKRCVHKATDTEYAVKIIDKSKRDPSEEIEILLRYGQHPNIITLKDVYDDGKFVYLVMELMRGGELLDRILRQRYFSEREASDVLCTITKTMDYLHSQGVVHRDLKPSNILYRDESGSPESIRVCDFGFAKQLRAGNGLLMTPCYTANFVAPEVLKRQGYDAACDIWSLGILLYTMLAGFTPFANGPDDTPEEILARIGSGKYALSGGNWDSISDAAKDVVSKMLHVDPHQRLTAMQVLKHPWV
smiles,measurement,setting,value
"O=C1CCC(N2C(=O)c3cccc(NCCCCCCCCNC(=O)N4CC[C@H](NC5=Nc6cc(F)ccc6N(CC(F)F)c6ccc(Cl)cc65)C4)c3C2=O)C(=O)N1 (stereo partly drawn) [BJG-05-039, (3S)-3-((2-Chloro-5-(2,2-difluoroethyl)-8-fluoro-5H-dibenzo[b,e][1,4]diazepin-11-yl)amino)-N-(8-((2-(2,6-dioxopiperidin-3-yl)-1,3-dioxoisoindolin-4-yl)amino)octyl)pyrrolidine-1-carboxamide]",remaining binding at 10 µM,RIOK3,84%
same,remaining binding at 10 µM,FRK,67%
same,remaining binding at 10 µM,BMX,90%
same,remaining binding at 10 µM,CAMKK1,52%
same,remaining binding at 10 µM,KIT(L576P),84%
same,remaining binding at 10 µM,YANK2,99%
same,remaining binding at 10 µM,ACVR1B,85%
same,remaining binding at 10 µM,MARK3,83%
same,remaining binding at 10 µM,FLT3(K663Q),59%
same,remaining binding at 10 µM,TLK1,46%
same,remaining binding at 10 µM,MKK7,100%
same,Effect on cell proliferation,Hey A8 cells; HEY-A8 cells (PAK2-dependent),Neither BJG-05-039 or NVS-PAK1-1 significantly affected cell proliferation
same,EC50,"Hey A8 cells; Hey A8 cells (PAK2-dependent), read-out: EC50, anti-proliferative",36 µM
same,Effect on cell proliferation,OMM1 cells,Neither BJG-05-039 or NVS-PAK1-1 significantly affected cell proliferation
same,EC50,"OMM1 cells; OMM-1, read-out: EC50, anti-proliferative",20.8 µM
same,EC50,MCF7 cells; first statement of b311,0.003 µM
same,EC50,MCF7 cells; second listing of b311,0.086 µM
same,remaining binding at 10 µM,[1],90%
same,remaining binding at 10 µM,PAK3,100%
same,remaining binding at 10 µM,AKT2,86%
same,remaining binding at 10 µM,MAP3K4,95%
same,remaining binding at 10 µM,MEK4,85%
same,remaining binding at 10 µM,WNK3,89%
same,remaining binding at 10 µM,MST4,86%
same,remaining binding at 10 µM,[2],98%
same,remaining binding at 10 µM,p38-beta,97%
same,remaining binding at 10 µM,FYN,71%
same,remaining binding at 10 µM,IKK-alpha,91%
same,remaining binding at 10 µM,MAP4K5,59%
same,remaining binding at 10 µM,EIF2AK1,98%
same,remaining binding at 10 µM,LATS2,100%
same,remaining binding at 10 µM,[3],51%
same,remaining binding at 10 µM,MST2,80%
same,remaining binding at 10 µM,CSNK1D,60%
same,remaining binding at 10 µM,PAK4,75%
